# Source: PMC11733953, “Identification of a Potent CDK8 Inhibitor Using Structure-Based Virtual Screening” (Journal of Chemical Information and Modeling, 2024)
# Molecular target: Cyclin-dependent kinase 8 (CDK8) (Homo sapiens, UniProt P49336)
# Experiment: LanthaScreen Eu kinase binding assay (TR-FRET displacement of Tracer […]), dose-response; […] inhibition at […] in 60-kinase panel
# Chain of Cyclin-dependent kinase 8 (CDK8) (P49336 whole entry): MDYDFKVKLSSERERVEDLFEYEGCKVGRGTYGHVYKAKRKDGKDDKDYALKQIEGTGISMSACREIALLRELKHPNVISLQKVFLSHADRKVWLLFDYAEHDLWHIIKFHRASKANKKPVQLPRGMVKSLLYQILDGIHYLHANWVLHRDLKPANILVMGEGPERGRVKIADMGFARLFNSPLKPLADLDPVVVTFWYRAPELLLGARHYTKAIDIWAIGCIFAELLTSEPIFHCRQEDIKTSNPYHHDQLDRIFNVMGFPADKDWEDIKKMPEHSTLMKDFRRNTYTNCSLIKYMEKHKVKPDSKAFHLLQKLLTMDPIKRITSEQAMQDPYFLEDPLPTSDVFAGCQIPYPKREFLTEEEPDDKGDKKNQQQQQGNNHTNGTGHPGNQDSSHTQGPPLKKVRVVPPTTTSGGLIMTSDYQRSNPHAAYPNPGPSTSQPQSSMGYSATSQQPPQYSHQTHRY
# Chain of Cyclin-dependent kinase 8 (CDK8) (P24863 whole entry partner): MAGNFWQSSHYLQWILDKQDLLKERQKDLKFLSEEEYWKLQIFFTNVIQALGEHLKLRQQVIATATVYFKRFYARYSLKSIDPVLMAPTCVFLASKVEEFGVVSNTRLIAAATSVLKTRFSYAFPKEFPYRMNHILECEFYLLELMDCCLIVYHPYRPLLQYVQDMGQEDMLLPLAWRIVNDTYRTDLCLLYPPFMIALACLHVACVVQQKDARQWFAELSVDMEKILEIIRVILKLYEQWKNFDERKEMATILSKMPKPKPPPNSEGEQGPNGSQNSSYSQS
structure (smiles),measurement,value
O=C(Cc1nnc(-c2ccc3ncccc3c2)o1)NCc1ccc(F)cc1 [P162-0948],IC50,50.4 nM
